Target: T1, NnGH92 (Neobacillus novalis, UniProt A0A7R9KAR8)
T1 construct: full-length five-domain enzyme without native signal peptide (Ser34-Asp1411); Alcalase signal peptide then N-terminal HHHHHHPR tag kept; secreted from Bacillus subtilis
Test: X-ray crystal structure, […] Å
Type: binding
Conditions: co-crystallised with 5 mM mannoimidazole and 8 mM CaCl2, pH 6.6; catalytic active site (-1 subsite, Ca2+); second site in N-terminal CBM32 (chain A)

T1 sequence (A0A7R9KAR8 entry or part of it): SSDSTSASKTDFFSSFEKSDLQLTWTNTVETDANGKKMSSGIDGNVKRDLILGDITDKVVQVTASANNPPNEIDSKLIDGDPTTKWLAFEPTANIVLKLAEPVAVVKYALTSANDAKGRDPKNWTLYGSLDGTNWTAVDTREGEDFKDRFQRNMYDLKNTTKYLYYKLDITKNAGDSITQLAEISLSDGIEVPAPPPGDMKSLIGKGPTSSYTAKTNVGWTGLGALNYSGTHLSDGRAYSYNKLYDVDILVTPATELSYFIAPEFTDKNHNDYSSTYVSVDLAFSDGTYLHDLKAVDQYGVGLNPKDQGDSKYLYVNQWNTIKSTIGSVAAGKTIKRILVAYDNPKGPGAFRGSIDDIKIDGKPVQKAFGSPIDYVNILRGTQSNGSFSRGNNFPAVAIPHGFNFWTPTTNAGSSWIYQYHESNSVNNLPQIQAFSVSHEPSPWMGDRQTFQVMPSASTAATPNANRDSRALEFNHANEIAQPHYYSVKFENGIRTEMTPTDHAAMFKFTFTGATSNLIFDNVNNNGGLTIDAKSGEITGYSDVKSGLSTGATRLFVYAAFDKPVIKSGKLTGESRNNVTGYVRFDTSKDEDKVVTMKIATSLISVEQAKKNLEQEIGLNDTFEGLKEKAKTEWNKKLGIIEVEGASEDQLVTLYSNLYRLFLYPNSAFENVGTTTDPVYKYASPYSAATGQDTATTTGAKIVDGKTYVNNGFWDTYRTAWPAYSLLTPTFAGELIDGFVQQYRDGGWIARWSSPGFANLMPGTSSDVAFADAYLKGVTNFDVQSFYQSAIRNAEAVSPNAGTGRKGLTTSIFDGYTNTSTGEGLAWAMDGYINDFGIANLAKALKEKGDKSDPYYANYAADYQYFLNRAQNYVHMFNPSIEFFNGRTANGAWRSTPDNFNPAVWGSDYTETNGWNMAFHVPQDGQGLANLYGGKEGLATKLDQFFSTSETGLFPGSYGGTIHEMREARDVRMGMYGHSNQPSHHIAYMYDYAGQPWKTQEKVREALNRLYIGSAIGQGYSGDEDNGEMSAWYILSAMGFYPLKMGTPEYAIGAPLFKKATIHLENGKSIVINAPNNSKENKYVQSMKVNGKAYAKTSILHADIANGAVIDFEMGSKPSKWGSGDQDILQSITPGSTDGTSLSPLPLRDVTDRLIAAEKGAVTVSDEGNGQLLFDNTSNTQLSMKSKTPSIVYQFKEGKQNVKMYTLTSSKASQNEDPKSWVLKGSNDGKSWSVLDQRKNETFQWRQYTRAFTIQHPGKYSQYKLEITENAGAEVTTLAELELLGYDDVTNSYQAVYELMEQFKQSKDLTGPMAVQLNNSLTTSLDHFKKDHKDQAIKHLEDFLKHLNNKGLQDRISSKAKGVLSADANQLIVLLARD

OC[C@@H]1[C@@H](O)[C@H](O)[C@H](O)c2nccn21 [mannoimidazole] was tested, and the “X-ray crystal structure, 2.3 Å” value was “solved in complex with the mannosidase inhibitor mannoimidazole (ManI; PDB entry 7nsn”.
